Assay results reported in patent US20030199476A1, “Medicament for the stimulation of leucopoiesis and treatment of tumour and protozoan diseases acarinosis and arthropod-borne diseases and a method for production thereof” (priority 2000, published 2003).
Where two headings read alike, the source gives them in different places.

Legend:
Toxicity tests = assay type: in vivo; conditions: rats/mice; form not stated
Description: (§1) Toxicity and Activity Tests

[1] = tested on: Entamoeba histolytica HM-1:IMSS; assay: Cytotoxicity of alkylphosphocholines on amebae (Trypan blue count, Probit); assay type: cell-based; conditions: strain HM-1:IMSS, read-out: ED50 (the source's name)
Method: (§2) Entamoeba histolytica SFL-3 and HM-1: IMSS (American Type Culture collection, order number ATCC 30459), pathogenic amebae of zymodeme II, were cultured, at 37° C., in TYI-S-33 medium (Diamond et al., Trans. Roy. Soc. Trop. Med. Hyg. 72: 431-432 (1978)) containing 10% bovine serum. The cultures of SFL-3 were kept in 100 ml glass bottles while the cultures of HM-1:IMSS were kept in 50 ml tissue culture flasks.
(§3) 38 h cultures of E histolytica were used for measuring the cytotoxicity of the alkylphosphocholines. The amebae were released from the culture vessels by shaking, centrifuged down for 3 min at 2 000 revolutions per minute and 4° C. in a Heraeus Minifuge RF, resuspended in 20 ml of TYI-S-33 medium and counted in a hemocytometer chamber.
(§4) For each measurement, in each case 8-10×10^5 amebae were provided in 12 ml of medium in Pyrex tubes fitted with a screw closure and the alkylphosphocholine was added in a volume of 660 μl. […] (w/v) ethanol in double-distilled water was used for dissolving hexadecylphosphocholine and octadecylphosphocholine, while double-distilled water on its own was used for all the other substances and the liposomal preparations. 5% ethanol or double-distilled water was correspondingly added to the control cultures. The concentrations of alkylphosphocholines employed were 100 μM, 50 μM, 20 μM, 10 μM and 5 μM. Six cultures were in each case prepared for each of the concentrations.
(§5) The effect of the alkylphosphocholines was determined after 24 h and after 48 h. For this, in each case three of the cultures were shaken up and transferred into in each case three plastic centrifuge tubes. The amebae were centrifuged down for 5 min at 2 200 rpm and 4° C. and suspended in a final volume of 1 ml in a 1:1 mixture of Trypan blue (Sigma) and PBS. Each of the samples was then counted in the hemocytometer and the number of living and dead, stained blue due to having taken up the die, amebae was recorded.
(§6) The results were analyzed using the “Probit” program (Wernsdorfer and Wernsdorfer, Mitt. Österr. Ges. Tropenmed. Parasitol. 17:221-228 (1995)).
(§7) The tests were carried out as described above. The E. histolytica strains SFL-3 and HM-1:IMSS were tested. In each case six cultures were prepared for each concentration of alkylphosphocholine in pure or liposomal form. Three of the cultures were counted after […] and three further cultures were counted after 48 h. In each case two independent experiments were carried out for each of the two strains.

[2] = tested on: Entamoeba histolytica SFL-3; assay: as above; assay type: cell-based; conditions: read-out: ED50 (the source's name)
Method: as §2, §3, §4, §5, §6, §7

[3] = Activity tests: necessary administration quantities; assay type: in vivo; conditions: Form: Free (oral); rats/mice
Description: as §1

Row | SMILES | Toxicity (Toxicity tests) | EC50 ([1]; day 1 (24 h)) | EC50 ([1]; day 2 (48 h)) | EC50 ([2]; strain SFL-3, day 1 (24 h)) | EC50 ([2]; strain SFL-3, day 2 (48 h)) | Necessary administration quantities [3]
1 | CCCCCCCCCCCCCCCCOP(=O)([O-])OCC[N+](C)(C)C [APC 1, hexadecylphosphocholine] | 90 µmol | 94 µM | 83 µM | 88 µM | 50 µM | 60 µmol
2 | CCCCCCCCCCCCCCCCCCOP(=O)([O-])OCC[N+](C)(C)C [APC 2, octadecylphosphocholine] | – | 80 µM | 70 µM | 36 µM | 24 µM | –
3 | CCCCCCCC/C=C\CCCCCCCCOP(=O)([O-])OCC[N+](C)(C)C [APC 9, oleylphosphocholine] | – | 121 µM | 80 µM | 32 µM | 16 µM | 20 µmol
4 | CCCCCCCC/C=C\CCCCCCCCCOP(=O)([O-])OCC[N+](C)(C)C [APC 10, (Z)-10-nonadecenylphosphocholine] | – | 112 µM | 87 µM | 24 µM | 20 µM | –
5 | CCCCCCCC/C=C\CCCCCCCCCCCCOP(=O)([O-])OCC[N+](C)(C)C [Erucyl-PC] | – | – | – | – | – | 100 µmol
6 | CCCCCCCCCCCCCCCCCCCOP(=O)([O-])OCC[N+](C)(C)C [Nonadecyl-PC] | – | – | – | – | – | 20 µmol
